Results on one compound are retold here after ChEMBL document CHEMBL4118185, “Kakeromamide A, a new cyclic pentapeptide inducing astrocyte differentiation isolated from the marine cyanobacterium Moorea bouillonii” (Bioorg Med Chem Lett, 2018).

By IC50 is commonly meant the concentration needed to halve the response being measured. Lower therefore signals inhibition by little substance.

Each structure is given as a SMILES string. The source made the active and inactive calls. The rule behind the calls is not given here.

Series [1] is filed under the species Mus musculus. As to the kind of experiment: Suppression of differentiation of mouse neuronal stem cells into neurons at 2.5 to 10 uM after 72 hrs by NeuO-Hoechst 33342 staining-based microscopic method. It counts as functional.
The next series concerns HeLa. As to the kind of experiment: Cytotoxicity against human HeLa cells after 72 hrs by MTT assay. The series is classed as functional, cell-based. On the technique in general: Tetrazolium dyes change colour on reduction, which living cells bring about.
Series [2] is filed under the species Mus musculus. As to the kind of experiment: Induction of differentiation of mouse neuronal stem cells into astrocytes after 72 hrs by Hoechst 33342 staining based immunofluorescence assay. The series is classed as functional.
A short description of series [3]: Cytotoxicity against mouse neuronal stem cells at 2.5 to 10 after 72 hrs. The series is classed as cell-based.
Another series concerns P388. As to the kind of experiment: Cytotoxicity against mouse P388 cells at 10 uM after 72 hrs by MTT assay. The series is classed as functional, cell-based.

Consider `CCC[C@H]1NC(=O)c2csc(n2)[C@H](C(C)C)NC(=O)[C@H](Cc2ccc(OC)cc2)N(C)C(=O)[C@H](Cc2ccc(OC)cc2)N(C)C(=O)[C@H](C(C)C)NC(=O)[C@H]1C`, for which, in the series filed under Mus musculus [1], the result was Active. Besides, in the series with HeLa, the IC50 was 10 µM. For the same compound, the Activity result is “Dose-dependent effect” in the series listed under Mus musculus [2] and “Non-Toxic” in series [3]. For the same compound, the outcome in the series on P388 was inactive.
